Legend:
[1] = test system: GFP+ 4T1 cells and RFP+ 4T1 cells; assay: Experiment using artificial skin, MTT assay; format: cell-based, mouse; conditions: presence as well as absence of artificial skin (1 mm), 1 μM, yellow laser light, FIG. 17
Procedure: Actual skin condition was applied. photosensitizer was applied to GFP+ cell and RFP+ cell which in turn was irradiated with light. Then, cell death was measured by MTT assay. The specific experimental procedure is as follows.
Specifically, rose bengal and tin ethyl etiopurpurin at 1 μM concentration were produced in the same method as described in the 2-4. Then, the tin ethyl etiopurpurin was applied to RFP+ 4T1 cells selected from the 1-3. The rose bengal was applied to GFP+ 4T1 cells selected from 1-4. Then, the cells were cultured for 4 hours and washed three times with PBS buffer. Next, as shown in the schematic diagram of FIG. 16, an artificial skin tissue (AST, thickness 1 mm) (Geistlich Mucograft, Geistlich Pharma AG) was placed between the light source and the cell. Thus, the actual skin condition was established. Then, blue laser light (473 nm; radiation dose rate=2 J/cm^2) was applied to GFP+ cells for 5 seconds. Yellow laser light (580 nm; radiation dose rate=2 J/cm^2) were irradiated to RFP+ cells for 5 seconds. In 2 hours of the irradiation, the cells were washed twice with PBS buffer. MTT analysis was carried out in the same method as described in the Experimental Example 2-2. […]

[2] = test system: RFP+ and RFP− 4T1 cells; assay: In vitro PDT with tin ethyl etiopurpurin and yellow light over irradiation time, LDH and MTT analysis; format: cell-based, mouse; conditions: 1 μM, yellow laser light, in 2 seconds after light irradiation, FIG. 11, 12
Procedure: The yellow light was irradiated over time, and then photo inducing death of RFP+ and RFP− cells was measured by MTT analysis under the presence of tin ethyl etiopurpurin. The specific experimental procedure is as follows.
Specifically, tin ethyl etiopurpurin (Miravant Medical Technology Inc, USA) was diluted with RPMI-1640 medium containing 10% FBS to produce 1 μM concentration of tin ethyl etiopurpurin. Further, the RFP− or RFP+ 4T1 cells selected from the above 1-3 were pre-incubated in a 24-well plate at a density of 5×10^4 cells per well. The pre-cultured cells were then incubated with tin ethyl etiopurpurin for 4 h. After 4 hours, the cells were washed three times with PBS buffer. Then, the yellow laser light (570 nm; radiation dose rate=2 J/cm^2) was irradiated thereto for 0, 5 and 10 seconds. LDH analysis was then performed using the LDH Cytotoxicity Assay kit (Cayman Chemical Company, USA) according to the manufacturer's procedure. […] The absorbance was measured at 490 nm using a plate reader.
Further, the RFP− or RFP+ 4T1 cells selected from the 1-3 using the same method as described above were subjected to the yellow laser light (570 nm; radiation dose rate=2J/cm^2) for 0, 1, 2, 5, 7, or 10 secs. […] The absorbance of the reaction solution was measured at 570 nm. Cell viability was calculated by the following equation: […]

[3] = test system: GFP+ 4T1 cells, RFP+ 4T1 cells and control 4T1 cells; assay: In vitro PDT of GFP+ and RFP+ cells with photosensitizer and red, blue or yellow light, MTT analysis; format: cell-based, mouse; conditions: FIG. 14; for cytotoxicity in control, RFP+ and GFP+ cells: 1 μM photosensitizer
Procedure: The cytotoxicity of RFP+ or GFP+ cells was measured by MTT analysis in the presence of Ce6 (Chlorine (e6)), rose bengal or tin ethyl etiopurpurin as photosensitizer after red light, blue light or yellow light irradiation. The specific experimental procedure is as follows.
Specifically, Ce6 (santacruz, sc-263067), rose bengal (Sigma Aldrich, 330000-5G) or tin ethyl etiopurpurin as a photosensitizer was diluted with RPMI-1640 medium containing 10% FBS. Thus, 1 μM concentration of Ce6 (Chlorine (e6)), rose bengal or tin ethyl etiopurpurin was prepared. Further, GFP+ 4T1 cells selected in the 1-4 and RFP+ 4T1 cells selected in the 1-3 were pre-cultured at a density of 2×10^4 cells/well in 96-well, black, and clear bottom plates. The pre-cultured cells were then incubated with Ce6, rose bengal or tin ethyl etiopurpurin for 4 h. 4T1 cells without RFP or GFP introduced thereto were used as controls. After 4 hours, the cells were washed three times with PBS buffer. Then, red laser light (650 nm; radiation dose rate=2 J/cm^2) or blue laser light (488 nm; radiation dose rate=2 J/cm^2) or yellow laser light (570 nm, radiation dose rate=2 J/cm^2) was irradiated thereto for 5 seconds. After the irradiation, the fresh culture medium was added to the wells. Then, the cells were cultured again for 24 hours. MTT analysis was then performed.

[4] = test system: RFP+ and RFP− 4T1 cells; assay: In vitro PDT with varying tin ethyl etiopurpurin concentration, MTT analysis; format: cell-based, mouse; conditions: 0, 0.5, 1 and 2 μM, yellow laser light 5 seconds, FIG. 13
Procedure: After irradiation with yellow light, the photo inducing death of RFP+ and RFP− cells was measured by MTT analysis under the conditions of varying tin ethyl etiopurpurin concentrations. The specific experimental procedure is as follows.
Specifically, tin ethyl etiopurpurin was produced at 0, 0.5, 1 and 2 μM concentrations in the same method as described above. Then, the cells were cultured for 4 hours with RFP− or RFP+ 4T1 cells selected from the 1-3. MTT analysis was performed after irradiation of yellow laser light (570 nm; radiation dose rate=2 J/cm^2) thereto for 5 seconds.

[5] = test system: GFP+ A549, RFP+ A549 and YFP+ A549 cells; assay: In vitro PDT of GFP+, RFP+ and YFP+ cells with photosensitizer, MTT analysis; format: cell-based, human; conditions: 1 μM, yellow laser light (570 nm), FIG. 21, 22
Procedure: Photo inducing death of GFP+, RFP+, and YFP+ cells via the photosensitizer was measured by MTT analysis. The specific experimental procedure is as follows.
To investigate photo inducing death of GFP+ cells, RFP+ cells, and YFP+ cells via the photosensitizer, rose bengal, hematoporphyrin (Sigma-aldrich #5518) or 5-ALA (5-Aminolevulinic acid hydrochloric, Sigma-aldrich # A3785) was diluted with RPMI medium containing 10% FBS. 1 μM concentration of rose bengal, hematoporphyrin or 5-ALA was prepared. Further, GFP+ A549 cells, RFP+ A549 cells and YFP+ A549 cells selected from the 1-4 were pre-incubated at a density of 5×10^3 cells per well on 96-well, black, and clear bottom plates. A549 cells with pcDNA 3.1 vector injected thereto were cultured as control. Then, each of the photosensitizers as produced was applied or not applied to the preincubated cells in the preincubated cells which in turn were cultured for 4 hours. After 4 hours, the cells were washed three times with PBS buffer. Irradiation or non-irradiation of blue laser light (488 nm; radiation dose rate=2 J/cm^2) or yellow laser light (570 nm; radiation dose rate=2 J/cm^2) thereto was carried out for 5 seconds. After irradiation or non-irradiation, a fresh culture medium was added to the wells. The cells were cultured again for 24 hours. MTT analysis was then performed.

[6] = test system: eGFP+ and eGFP− cells; assay: Cytotoxicity with Ce6 and 650-nm red laser light, eGFP+ versus eGFP− cells; format: cell-based; conditions: FIG. 5

`CCOC(=O)C1=Cc2c3nc(cc4nc(cc5[n-]c(cc6[n-]c2c(C)c6CC)c(C)c5CC)C(C)=C4CC)[C@@H](C)[C@]13CC.[Cl-].[Cl-].[Sn]` (racemic) [tin ethyl etiopurpurin] was tested, and the “cell death level of RFP+ cells versus GFP+ cells treated with rose bengal and blue laser light” value [1] was “the cell death level was higher”, the “RFP+ cell death compared to RFP− cell, by irradiation duration” value [2] was “RFP+ cell death increased considerably” and the “cytotoxicity in control, RFP+ and GFP+ cells” value ([3]; yellow laser light) was “cytotoxicity was seen only in RFP+ cells”. The “degree of cytotoxicity in RFP+ cells versus GFP+ cells treated with rose bengal and blue laser light” value ([3]; 1 μM, yellow laser light) was “the degree of cytotoxicity was higher” and the “RFP+ cell death by treatment concentration” value [4] was “increased remarkably”.

For `Cl.NCC(=O)CCC(=O)O` [5-ALA, 5-Aminolevulinic acid hydrochloride], the “cell death effect in YFP+ cell and RFP+ cell” value [5] was “significant cell death effect” and the “cell death effect of RFP+ cell” value [5] was “remarkable cell death effect”.

chlorine e6 [Ce6] was tested, and the “cytotoxicity for eGFP+ versus eGFP− cells” value [6] was “not different from each other” and the “cytotoxicity in control, RFP+ and GFP+ cells” value ([3]; red laser light (650 nm)) was “control, RFP+, and GFP+ cells showed cytotoxicity”.

Source: patent US20190365927A1, “COMPOSITION FOR PHOTODYNAMIC THERAPY USING GENE EXPRESSING FLUORESCENT PROTEIN AND PHOTOSENSITIZER, AND PHOTODYNAMIC THERAPY METHOD USING SAME” (priority 2017, published 2019)
